Assay results as given in patent US9115159B2, “Phosphate compounds, a process for their preparation and pharmaceutical compositions containing them” (LES LABORATOIRES SERVIER, priority 2013, dated 2015).
Where two headings read alike, the source gives them in different places.

What was measured:
[1] = In vitro test on human Caco-2 cells, cellular transport A to B; format: in vitro ADME; details: human, Caco-2, drug incubated and measured, A to B, 1 or 3 μM, read-out: Papp, the drug after incubation of the drug
Experimental: (§1) The cellular transport from A to B (Apical to Basolateral) of the phosphate compounds of formula (I) and the compounds of formula (I′) (corresponding drugs) is studied in human Caco-2 cells. Each compound is deposited apically at 1 or 3 μM (in duplicate) and then incubated for 120 minutes.
(§2) Several samples are taken during the experiment; • apically: immediately after deposition (t=0) and at 120 minutes • basolaterally: at the end of the experiment (120 minutes)
(§3) The concentrations of the phosphate compound (prodrug) and/or of its hydroxylated homologue (drug) are determined by liquid chromatography coupled with mass spectrometric detection (LC-MS/MS). The limit of quantification for both entities is 2 ng/mL.
(§4) The apparent permeability (Papp) and the predicted absorbed fraction (Fabs) in humans are calculated for the prodrug, for the drug after incubation of the prodrug and for the drug after incubation of the drug (Hubatsch et al, Nat Protoc. 2007; 2(9), 2111-2119).
(§5) The experiment yield, which corresponds to the ratio (in percent) of the total amount of compound found at the end of the experiment versus that incubated, is also calculated.

human Caco-2 cells = test: as above; format: in vitro ADME; details: drug incubated and measured, 120 minutes; for Fabs (predicted absorbed fraction in humans), the drug after incubation of the drug: A to B, 1 or 3 μM
Experimental: as §1, §2, §3, §4, §5

[2] = Solubility in aqueous medium buffered to physiological pH (phosphate 0.33M, pH 7.4); format: physicochemical; details: phosphate 0.33M, pH = 7.4
Experimental: The solubilities of the compounds were also measured in a medium buffered to physiological pH (cf. Table 3).

[3] = Pharmacokinetic profile / in vivo conversion after oral administration to SCID mice (plasma, LC-MS/MS); parameters: species or system female SCID mice; details: female, mouse, po, lipid formulation (PEG 300/ethanol/Phosal 50PG 30/10/60)
Experimental: The pharmacokinetic profile of the phosphate compounds of formula (I) is evaluated in a lipid formulation and in aqueous solution in female SCID mice. This is compared to the pharmacokinetic profile of compounds of formula (I′) in a lipid formulation. More specifically, 4-[{[3-(6-{[(3S)-3-(morpholin-4-ylmethyl)-3,4-dihydroisoquinolin-2(1H)-yl]-carbonyl}-1,3-benzodioxol-5-yl)-5,6,7,8-tetrahydroindolizin-1-yl]carbonyl}(phenyl)-amino]phenyl disodium phosphate (also referred to as the compound of Example 1) was tested and compared to N-(4-hydroxyphenyl)-3-{6-[((3S)-3-(4-morpholinylmethyl)-3,4-dihydro-2(1H)-isoquinolinyl)carbonyl]-1,3-benzodioxol-5-yl}-N-phenyl-5,6,7,8-tetrahydro-1-indolizine carboxamide (also referred to as the drug from Example 1).
The compound of Example 1 is prepared in a mixture of anhydrous ethanol/polyethylene glycol 300/water (10/40/50, v/v/v) intended for administration by the p.o. route. The study is carried out in 2 groups of SCID mice to which the compound of Example 1 is administered under the following conditions: • Group 1: 3 mg/kg p.o. (gavage, 10 mL/kg), • Group 2: 25 mg/kg p.o. (gavage, 10 mL/kg).
Blood samples are taken at the following points in time (3 samples per animal and 3 animals for each point in time): 0.25 hr, 0.5 hr, 1 hr, 2 hrs, 6 hrs and 24 hrs after oral administration.
The compound of Example 1 is also administered by the oral route in an aqueous medium to SCID mice, under the following conditions: • Group 1: 30 mg/kg p.o. dissolved in 1 mM sodium carbonate solution (gavage, 10 mL/kg), • Group 2: 100 mg/kg p.o. in water (gavage, 10 mL/kg).
Blood samples are taken at the following points in time (3 animals for each point in time and 1 sample per animal): 0.25 hr, 0.5 hr, 1 hr, 2 hrs, 4 hrs, 6 hrs and 24 hrs after oral administration.
For all formulations of the compound of Example 1, the blood thereby collected is centrifuged and the plasma is transferred to tubes containing 1M hydrochloric acid. The plasma concentrations of the phosphate compound (prodrug) and its hydroxylated homologue (drug) are determined simultaneously using a method of liquid chromatography coupled with mass spectrometric detection (TFC-LC-MS/MS). The limit of detection for both entities is 0.5 ng/mL.
The drug from Example 1 is prepared in a mixture of anhydrous ethanol/polyethylene glycol 300/water (10/40/50, v/v/v) intended for administration by the p.o. route. The study is carried out in several groups of SCID mice to which the drug from Example 1 is administered under the following conditions: • Group 1: 3 mg/kg p.o. (gavage, 10 mL/kg), • Group 2: 30 mg/kg p.o. (gavage, 10 mL/kg), • Group 3: 25 mg/kg p.o. (gavage, 10 mL/kg), • Group 4: 100 mg/kg p.o. (gavage, 10 mL/kg).
Blood samples are taken at the following points in time (3 animals for each point in time and 3 samples per animal for Groups 1-2 and 1 sample per animal for Groups 3 and 4): • p.o.: before administration and then 0.25 hr, 0.5 hr, 0.75 hr, 1 hr, 2 hrs, 4 hrs, 6 hrs, 8 hrs, 16 hrs and 24 hrs after oral administration at 3 and 30 mg/kg, • p.o.: 0.5 hr, 2 hrs, 6 hrs, 16 hrs and 24 hrs after oral administration at 25 mg/kg and 0.5 hr, 1 hr, 2 hrs, 6 hrs, 16 hrs, 30 hrs and 48 hrs after oral administration at 100 mg/kg.
The plasma from the blood samples collected after administration of the lipid formulations of the drug from the compound of Example 1 are analysed by liquid chromatography coupled with mass spectrometric detection. The limit of quantification of the drug from the compound of Example 1 is less than or equal to 0.5 ng/mL.
Non-compartmental pharmacokinetic analysis is carried out on the mean values of the plasma concentrations of the compounds tested. […]

[4] = system: cleaved (activated) form of caspase 3; test: Quantification of the cleaved form of caspase 3 in vivo (MSD ELISA, RS4;11 xenograft tumour lysates); parameters: species or system mice (SCID strain); details: Table 2, 25 mg/kg oral, sampling time 2 hours, treated versus control mice
Experimental: The ability of the compounds of formula (I′) to activate caspase 3 is evaluated in a xenograft model of RS4;11 leukaemia cells.
1×10^7 RS4;11 cells are grafted sub-cutaneously into immunosuppressed mice (SCID strain). 25 to 30 days after the graft, the animals are treated orally with the various compounds. After treatment, the tumour masses are recovered and lysed, and the cleaved (activated) form of caspase 3 is quantified in the tumour lysates.
The quantification is carried out using the “Meso Scale Discovery (MSD) ELISA platform” test, which specifically assays the cleaved form of caspase 3. It is expressed in the form of an activation factor corresponding to the ratio between the quantity of cleaved caspase 3 in the treated mice divided by the quantity of cleaved caspase 3 in the control mice.
The ability of the compounds of formula (I) to activate caspase 3 is evaluated in a xenograft model of RS4;11 leukaemia cells in accordance with the protocol given in Example A2.

In the case of C[C@@H]1Cc2ccccc2CN1C(=O)c1cc2c(cc1-c1cc(C(=O)N(c3ccncc3)c3ccc(O)cc3)c3ccccn13)OCO2 [Drug from Example 5, N-(4-Hydroxyphenyl)-3-(6-{[(3R)-3-methyl-3,4-dihydroisoquinolin-2(1H)-yl]-carbonyl}-1,3-benzodioxol-5-yl)-N-(pyridin-4-yl)indolizine-1-carboxamide], the Papp A→B at 120 min [1] is reported as 0.7 ×10⁻⁶ cm/s, the “Yield (experiment yield), the drug after incubation of the drug” value (from here on “Yield (experiment yield), the drug”) (human Caco-2 cells) is reported as “Yield (%) = 34” and the “Fabs (predicted absorbed fraction in humans), the drug after incubation of the drug” value (human Caco-2 cells) is reported as “Fabs (%) = 68”.
For Cc1c(N(C(=O)c2cc(-c3cc(Cl)ccc3C(=O)N3Cc4ccccc4C[C@H]3CN3CCOCC3)n(C)c2C)c2ccc(O)cc2)cc(C#N)n1C [Drug from Example 20, 5-(5-Chloro-2-{[(3S)-3-(morpholin-4-ylmethyl)-3,4-dihydroisoquinolin-2(1H)-yl]carbonyl}phenyl)-N-(5-cyano-1,2-dimethyl-1H-pyrrol-3-yl)-N-(4-hydroxyphenyl)-1,2-dimethyl-1H-pyrrole-3-carboxamide], the “Solubility at 10 μM” value [2] was “Soluble”, the “Solubility at 20 μM” value [2] was “Insoluble” and the “Solubility at 50 μM” value [2] was “Insoluble”. For the same compound, the “Solubility at 100 μM” value [2] was “Insoluble”, the Papp A→B at 120 min [1] was 0.29 ×10⁻⁶ cm/s and the “Yield (experiment yield), the drug” value (human Caco-2 cells) was “Yield (%) = 91”. For the same compound, the “Fabs (predicted absorbed fraction in humans), the drug after incubation of the drug” value (human Caco-2 cells) was “Fabs (%) = 25”, the AUC(0-t) ([3]; Drug from Example 20 administered 3 mg/kg p.o., read-out: AUCt, compound measured: Drug from Example 20) was 55 ng·h/mL and the Cmax ([3]; Drug from Example 20 administered 3 mg/kg p.o., read-out: Cmax, compound measured: Drug from Example 20) was 39 ng/mL. It also gave a Tmax ([3]; Drug from Example 20 administered 3 mg/kg p.o., read-out: Tmax, compound measured: Drug from Example 20) of 1 h, an AUC(0-t) ([3]; Drug from Example 20 administered 25 mg/kg p.o., read-out: AUCt, compound measured: Drug from Example 20) of 10200 ng·h/mL and a Cmax ([3]; Drug from Example 20 administered 25 mg/kg p.o., read-out: Cmax, compound measured: Drug from Example 20) of 5520 ng/mL. It also gave a Tmax ([3]; Drug from Example 20 administered 25 mg/kg p.o., read-out: Tmax, compound measured: Drug from Example 20) of 2 h.
For Cc1c(C(=O)N(c2ccc(O)cc2)c2cc(C#N)n(C)c2)cc(-c2cc(Cl)ccc2C(=O)N2Cc3ccccc3C[C@H]2CN2CCOCC2)n1C [Drug from Example 21, 5-(5-Chloro-2-{[(3S)-3-(morpholin-4-ylmethyl)-3,4-dihydroisoquinolin-2(1H)-yl]carbonyl}phenyl)-N-(5-cyano-1-methyl-1H-pyrrol-3-yl)-N-(4-hydroxyphenyl)-1,2-dimethyl-1H-pyrrole-3-carboxamide], the Papp A→B at 120 min [1] was 0.27 ×10⁻⁶ cm/s, the “Yield (experiment yield), the drug” value (human Caco-2 cells) was “Yield (%) = 82” and the “Fabs (predicted absorbed fraction in humans), the drug after incubation of the drug” value (human Caco-2 cells) was “Fabs (%) = 24”.
In the case of Cc1c(N(C(=O)c2cc(-c3cc(F)ccc3C(=O)N3Cc4ccccc4C[C@H]3CN3CCOCC3)n(C)c2C)c2ccc(O)cc2)cc(C#N)n1C [Drug from Example 25, N-(5-Cyano-1,2-dimethyl-1H-pyrrol-3-yl)-5-(5-fluoro-2-{[(3S)-3-(morpholin-4-ylmethyl)-3,4-dihydroisoquinolin-2(1H)-yl]carbonyl}phenyl)-N-(4-hydroxyphenyl)-1,2-dimethyl-1H-pyrrole-3-carboxamide], the “Solubility at 10 μM” value [2] is reported as “Soluble”, the “Solubility at 20 μM” value [2] is reported as “Soluble” and the “Solubility at 50 μM” value [2] is reported as “Insoluble”. The “Solubility at 100 μM” value [2] was “Insoluble”, the Papp A→B at 120 min [1] was 0.49 ×10⁻⁶ cm/s and the “Yield (experiment yield), the drug” value (human Caco-2 cells) was “Yield (%) = 100”. For the same compound, the “Fabs (predicted absorbed fraction in humans), the drug after incubation of the drug” value (human Caco-2 cells) was “Fabs (%) = 40”, the AUC(0-t) ([3]; Drug from Example 25 administered 3 mg/kg p.o., read-out: AUCt, compound measured: Drug from Example 25) was 37 ng·h/mL and the Cmax ([3]; Drug from Example 25 administered 3 mg/kg p.o., read-out: Cmax, compound measured: Drug from Example 25) was 33 ng/mL. For the same compound, the Tmax ([3]; Drug from Example 25 administered 3 mg/kg p.o., read-out: Tmax, compound measured: Drug from Example 25) was 1 h, the AUC(0-t) ([3]; Drug from Example 25 administered 25 mg/kg p.o., read-out: AUCt, compound measured: Drug from Example 25) was 5700 ng·h/mL and the Cmax ([3]; Drug from Example 25 administered 25 mg/kg p.o., read-out: Cmax, compound measured: Drug from Example 25) was 3000 ng/mL. The Tmax ([3]; Drug from Example 25 administered 25 mg/kg p.o., read-out: Tmax, compound measured: Drug from Example 25) was 1 h.
In the case of Cc1c(C(=O)N(c2ccc(OP(=O)([O-])[O-])cc2)c2cnn(C)c2)cc(-c2cc(F)ccc2C(=O)N2Cc3ccccc3C[C@H]2CN2CCOCC2)n1C.[Na+].[Na+] [Example 15, 4-[{[5-(5-Fluoro-2-{[(3S)-3-(morpholin-4-ylmethyl)-3,4-dihydroisoquinolin-2(1H)-yl]carbonyl}phenyl)-1,2-dimethyl-1H-pyrrol-3-yl]carbonyl}(1-methyl-1H-pyrazol-4-yl)amino]phenyl disodium phosphate], the “Activation factor +/− S.E.M.” value [4] is reported as 12.1 +/− 1.1.
